Patent US20110086908A9, “USE OF PHOSPHATASE INHIBITORS FOR THE TREATMENT OF NEURODEGENERATIVE DISEASES” (priority 2007, published 2011)
Entries after “also recorded” stand apart in the source; their conditions may differ.

Assays:
calcineurin = biological target: T1, calcineurin (Homo sapiens, UniProt Q08209); experiment: Phosphatase activity assay (Biomol Green Assay-Kit), calcineurin; assay type: biochemical; details: 1 nM tautomycin
T1 construct: purchased Biomol
Procedure: (§1) Activity of recombinant PP1 (NEB) and calcineurin (Biomol) was measured with and without 1 nM tautomycin using the Biomol Green Assay-Kit (Biomol) according to manufacturer's instruction.

[1] = test system: hippocampal LTP in slices from arcAβ mice and wt littermates; experiment: Tautomycin bath application to acute hippocampal slices, LTP measurement (fEPSP recordings); assay type: cell-based, mouse; details: 1 nM tautomycin, at least 1 h before recording
recombinant PP1 = biological target: T2, recombinant PP1 (Oryctolagus cuniculus, UniProt P62139); experiment: PP1 activity assay (Biomol Green Assay-Kit); assay type: biochemical; details: 1 nM tautomycin
T2 construct: purchased NEB
Procedure: as §1

[2] = test system: hippocampal LTP in slices from wildtype, I-1* control and I-1* transgenic mice; experiment: Aβ-oligomers bath application to acute hippocampal slices, LTP measurement; assay type: cell-based, mouse

T2 sequence (P62139 whole entry): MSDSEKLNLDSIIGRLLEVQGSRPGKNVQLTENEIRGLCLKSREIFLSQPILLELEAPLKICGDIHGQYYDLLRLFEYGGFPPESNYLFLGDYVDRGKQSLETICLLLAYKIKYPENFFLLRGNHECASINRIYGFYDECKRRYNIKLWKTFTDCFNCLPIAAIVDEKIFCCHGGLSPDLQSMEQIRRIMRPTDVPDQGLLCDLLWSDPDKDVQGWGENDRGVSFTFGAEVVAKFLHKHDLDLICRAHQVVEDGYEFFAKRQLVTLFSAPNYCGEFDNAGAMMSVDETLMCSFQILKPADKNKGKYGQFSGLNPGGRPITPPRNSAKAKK
T1 sequence (P63098 2-170, other chains not shown): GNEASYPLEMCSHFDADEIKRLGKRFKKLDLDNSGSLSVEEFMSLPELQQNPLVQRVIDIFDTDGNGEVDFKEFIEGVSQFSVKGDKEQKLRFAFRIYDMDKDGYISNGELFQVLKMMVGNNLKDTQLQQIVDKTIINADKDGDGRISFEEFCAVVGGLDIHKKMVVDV

Compound | inhibition at 0.001 µM (calcineurin) [%] | inhibition of calcineurin activity (in words) (calcineurin) | effect on LTP deficit in slices from arcAβ (tg) mice (in words) ([1]; 3 months old arcAβ mice) | effect on LTP in slices from wt (non-transgenic) mice (in words) ([1]; wt littermates) | inhibition at 0.001 µM (recombinant PP1) [%] | inhibition of recombinant PP1 activity (in words) (recombinant PP1) | effect on LTP in slices from I-1* control mice (in words) ([2]; Aβ-oligomers bath-applied at least 1 h, I-1* littermate controls) | effect on LTP in slices from I-1* transgenic (mutant) mice with reduced PP1 activity (in words) ([2]; Aβ-oligomers bath-applied at least 1 h, I-1* transgenic mice) | effect on LTP in slices from wildtype mice (in words) ([2]; Aβ-oligomers corresponding to 0.5 μM initial peptide, bath-applied at least 1 h)
CO[C@H]([C@H](O)CC(=O)[C@@H](C)[C@@H](O)CC[C@@H](C)[C@@H]1O[C@]2(CC[C@@H](C)[C@H](CC[C@H](C)C(C)=O)O2)CC[C@@H]1C)[C@H](OC(=O)C[C@@H](O)C1=C(C)C(=O)OC1=O)C(C)C [tautomycin] | < 10 | not calcineurin | fully rescued the LTP deficit; also recorded: full rescue of LTP | has no effect | ~90 | specifically inhibits the activity of recombinant PP1 |  |  | 
Aβ-oligomers: oligomers produced from synthetic Aβ 1-42 (Bachem) according to Klein |  |  |  |  |  |  | impair LTP; also recorded: Aβ-oligomers mediated LTP deficit | not in mutant mice; also recorded: failed to inhibit LTP | impair LTP; also recorded: LTP was inhibited
